For 9 molecules, IC50 results are on record in ChEMBL document CHEMBL3792337, “Cardiac Glycosides from the Seeds of Thevetia peruviana” (J Nat Prod, 2016).

Test [1] can be described thus: Cytotoxicity against human MGC803 cells after 48 hrs by MTT assay. It counts as functional, cell-based. Conditions: MGC-803, 48 h.
Test [2] is described as follows: Cytotoxicity against human LO2 cells after 48 hrs by MTT assay. Type of test: cell-based. The settings on record: L02, 48 h.
For the next test, the system named is SW1990. In words: Cytotoxicity against human SW1990 cells after 48 hrs by MTT assay. It counts as functional, cell-based. Conditions: SW1990, 48 h.
A short description of test [3]: Cytotoxicity against human P15 cells after 48 hrs by MTT assay. Type of test: functional, cell-based. Conditions: P15, 48 h.

Regarding `CO[C@H]1[C@H](O)[C@H](O[C@H]2CC[C@@]3(O)[C@H](CC[C@@H]4[C@@H]3CC[C@]3(C)[C@@H](C5=CC(=O)OC5)CC[C@]43O)C2)O[C@@H](C)[C@@H]1O[C@@H]1O[C@H](CO[C@@H]2O[C@H](CO)[C@@H](O)[C@H](O)[C@H]2O)[C@@H](O)[C@H](O)[C@H]1O`, the IC50 (in test [1]; in test [2]; in the test with SW1990; in test [3]) was above 10 µM each time.
Turning to `CO[C@H]1[C@H](OC(C)=O)[C@H](O[C@@H]2CC[C@]3(C=O)[C@@H](CC[C@H]4[C@H]3CC[C@@]3(C)[C@H](C5=CC(=O)OC5)CC[C@@]43O)C2)O[C@@H](C)[C@@H]1O[C@H]1O[C@@H](CO[C@@H]2O[C@H](CO)[C@@H](O)[C@H](O)[C@H]2O)[C@H](O)[C@@H](O)[C@@H]1O`, the IC50 in test [1] was 9.53 µM; in test [2], above 10 µM; with SW1990, above 10 µM; in test [3], above 10 µM.
As for `O=c1[nH]cc(F)c(=O)[nH]1` [FLUOROURACIL], the IC50 in test [1] was 68.3 µM; in test [2] it was above 10 µM; in the test on SW1990, 126 µM; in test [3], 89.2 µM.
For `CO[C@@H]1[C@@H](O)[C@@H](O[C@@H]2CC[C@]3(CO)[C@@H](CC[C@H]4[C@H]3CC[C@@]3(C)[C@H](C5=CC(=O)OC5)CC[C@@]43O)C2)O[C@H](C)[C@H]1O[C@@H]1O[C@H](CO[C@H]2O[C@@H](CO)[C@H](O)[C@@H](O)[C@@H]2O)[C@@H](O)[C@H](O)[C@H]1O` the same measures were 9.52 µM, above 10 µM, 7.7 µM and 10 µM.
On to `CO[C@H]1[C@H](O)[C@H](O[C@H]2CC[C@@]3(C(=O)O)[C@H](CC[C@@H]4[C@@H]3CC[C@]3(C)[C@@H](C5=CC(=O)OC5)CC[C@]43O)C2)O[C@@H](C)[C@@H]1O`, for which the half-maximal inhibitory concentration (IC50) in test [1] is 3.93 µM; in test [2], above 10 µM; in the test with SW1990, above 10 µM; in test [3] it was above 10 µM.
As to `CO[C@H]1[C@H](O)[C@H](O[C@H]2CC[C@@]3(O)[C@H](CC[C@@H]4[C@@H]3CC[C@]3(C)[C@@H](C5=CC(=O)OC5)CC[C@]43O)C2)O[C@@H](C)[C@@H]1O`, the IC50 in test [1] was 2.14 µM; in test [2] it was above 10 µM; with SW1990, 0.49 µM; in test [3], 1.52 µM.
Consider `CO[C@@H]1[C@@H](O)[C@@H](O[C@H]2CC[C@@]3(C(=O)O)[C@H](CC[C@@H]4[C@@H]3CC[C@]3(C)[C@@H](C5=CC(=O)OC5)CC[C@]43O)C2)O[C@H](C)[C@H]1O[C@@H]1O[C@H](CO)[C@@H](O)[C@H](O)[C@H]1O`, for which the half-maximal inhibitory concentration (IC50) (in test [1]; in test [2]; in the test with SW1990; in test [3]) was above 10 µM throughout.
Take `CO[C@H]1[C@@H](O)[C@H](O[C@H]2CC[C@@]3(C)[C@H](CC[C@@H]4[C@@H]3CC[C@]3(C)[C@@H](C5=CC(=O)OC5)CC[C@]43O)C2)O[C@@H](C)[C@@H]1O[C@H]1O[C@@H](CO)[C@H](O)[C@@H](O)[C@@H]1O`: the IC50 in test [1] was above 10 µM; in test [2] it was above 10 µM; in the test with SW1990 it was 1.69 µM; in test [3] it was 1.5 µM.
Regarding `CO[C@H]1[C@H](O)[C@H](O[C@H]2CC[C@@]3(OO)[C@H](CC[C@@H]4[C@@H]3CC[C@]3(C)[C@@H](C5=CC(=O)OC5)CC[C@]43O)C2)O[C@@H](C)[C@@H]1O[C@@H]1O[C@H](CO[C@@H]2O[C@H](CO)[C@@H](O)[C@H](O)[C@H]2O)[C@@H](O)[C@H](O)[C@H]1O`, the half-inhibitory concentration (IC50) in test [1] was above 10 µM; in test [2], above 10 µM; in the test on SW1990, 3.62 µM; in test [3], above 10 µM.
